Data from PMC8053192, “Engineering of a borneol dehydrogenase from P. putida for the enzymatic resolution of camphor” (Applied Microbiology and Biotechnology, 2021).

System: T1, glucose dehydrogenase (GDH) from Pseudomonas sp.
T1 construct: commercial enzyme, Sigma-Aldrich (UK)
Assay: steady-state kinetics, Michaelis-Menten fit
Type: biochemical
Settings: pH 5.0, 30 °C; NAD+ as co-substrate; read-out: apparent Km

- Km: 3.6 ± 0.35 mM
Structure (SMILES): OC[C@H]1OC(O)[C@H](O)[C@@H](O)[C@@H]1O (stereo partly shown) [glucose]
